From publication PMC11191095, “QSAR Reveals Decreased Lipophilicity of Polar Residues Determines the Selectivity of Antimicrobial Peptide Activity” (ACS Omega, 2024)
Where a SMILES comes first, the peptide text is derived from it.

Experiments:
[1] = tested on: S. aureus (MSSA) ATCC 9144; experiment: microbe, parasite or virus in culture; format: cell-based, Staphylococcus aureus; details: S. aureus (MSSA) ATCC 9144 (S); shown in µM
Summary of the method: (§1)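 Peptides 128→2 μg/mL, 2-fold series; inoculum ~5 × 10^5 CFU/mL from overnight culture (OD600 0.01, mixed 1:1). MHB non-cation-adjusted for bacteria, RPMI 1640 + 2% glucose for fungi. 37 °C, 20 h, OD600. MIC50/MIC90 at 50%/90% inhibition; n ≥ 3.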

[2] = tested on: S. aureus (MRSA) USA300; experiment: microbe, parasite or virus in culture; format: cell-based, Staphylococcus aureus; details: S. aureus (MRSA) USA300 (R); shown in µM
Summary of the method: as §1

[3] = tested on: S. aureus (MRSA) 1199B; experiment: microbe, parasite or virus in culture; format: cell-based, Staphylococcus aureus; details: S. aureus (MRSA) 1199B (R); shown in µM
Summary of the method: as §1

[4] = tested on: S. aureus (MRSA) NCTC 13616; experiment: microbe, parasite or virus in culture; format: cell-based, Staphylococcus aureus; details: S. aureus (MRSA) NCTC 13616 (R); shown in µM
Summary of the method: as §1

[5] = tested on: human erythrocytes; experiment: In vitro hemolytic activity; format: cell-based; details: human erythrocytes in PBS, 1 h, 37 °C, OD550; from dose response curves
Method: Potential erythrocyte hemolysis was tested by incubating serial dilutions of the AMPs in PBS with freshly collected erythrocytes at a ratio of 1:1 in 96-well polypropylene V-shape plates for 1 h at 37 °C. Control wells were treated with 0.1% Triton-X-100 to ensure complete lysis or PBS-only to represent no lysis. The erythrocytes were collected by centrifugation and the OD550 of the supernatant was measured using a plate reader. The percentage hemolysis was calculated as [drawing 1] 1 where Apeptide is the absorbance value of erythrocytes exposed to a known peptide concentration, Agrowth control is the absorbance of erythrocytes exposed to 0.1% Triton-X-100 and Ablank is the absorbance of erythrocytes exposed to the PBS. The concentrations at which a peptide caused 10% (HC10) and 50% (HC50) hemolysis was determined from the dose response curves.

[6] = tested on: K. pneumoniae NCTC 13368; experiment: microbe, parasite or virus in culture; format: cell-based, Klebsiella pneumoniae; details: K. pneumoniae NCTC 13368 (R); shown in µM
Summary of the method: as §1

[7] = tested on: K. pneumoniae M6; experiment: microbe, parasite or virus in culture; format: cell-based, Klebsiella pneumoniae; details: K. pneumoniae M6 (S); shown in µM
Summary of the method: as §1

[8] = tested on: C. auris TDG 1912; experiment: microbe, parasite or virus in culture; format: cell-based, Candida auris; details: C. auris TDG 1912
Summary of the method: as §1

[9] = tested on: P. aeruginosa PAO1; experiment: microbe, parasite or virus in culture; format: cell-based, Pseudomonas aeruginosa; details: P. aeruginosa PAO1 (S); shown in µM
Summary of the method: as §1

[10] = tested on: P. aeruginosa NCTC 13437; experiment: microbe, parasite or virus in culture; format: cell-based, Pseudomonas aeruginosa; details: P. aeruginosa NCTC 13437 (R); shown in µM
Summary of the method: as §1

[11] = tested on: E. coli NCTC 12923; experiment: microbe, parasite or virus in culture; format: cell-based, Escherichia coli; details: E. coli NCTC 12923 (S); shown in µM
Summary of the method: as §1

[12] = tested on: E. coli LEC001; experiment: microbe, parasite or virus in culture; format: cell-based, Escherichia coli; details: E. coli LEC001 (R); shown in µM
Summary of the method: as §1

[13] = tested on: HaCat cell line; experiment: In vitro HaCat cytotoxicity (MTT); format: cell-based, human; details: 21 h exposure, OD570, relative to untreated control
Method: The HaCat cell line (Cellonex, South Africa) was cultured in Dulbecco’s Modified Eagle Medium (DMEM) supplemented with 10% heat-inactivated fetal calf serum (FCS) and 1% antibiotic-antimycotic (Abs) and maintained at 5–10% CO2, 37 °C, 95% humidity. For cytotoxicity screening, 5.56 × 10^4 cells/mL were plated in a 96-well plate. After 24 h incubation, the cells are initially exposed to each peptide at a concentration of 256 μg/mL or 0.1% Triton-X-100 as the control for 21 h. If cytotoxicity was observed, at a level of significance of p < 0.0001 compared with the untreated control after 21 h, a dose-response assay was undertaken. Cell viability was determined by adding 10% 3-(4,5-dimethyl-2-thiazolyl)-2,5-diphenyl-2H-tetrazolium bromide (MTT) (1 mg/mL), to each well and after a further 3 h incubation the media was discarded, and the formazan crystals dissolved by adding 25% DMSO in ethanol. The absorbance was measured at OD570 by using the FLUOstar Omega multidetection microplate reader (BMG Labtech). Percentage cell viability was calculated relative to the untreated control. The LC50 was defined as the concentration of AMP treatment that results in 50% lethality of HaCat cells and was determined from the dose-response curves.

[14] = tested on: A. baumannii ATCC 17978; experiment: microbe, parasite or virus in culture; format: cell-based, Acinetobacter baumannii; details: A. baumannii ATCC 17978 (S); shown in µM
Summary of the method: as §1

[15] = tested on: A. baumannii AYE; experiment: microbe, parasite or virus in culture; format: cell-based, Acinetobacter baumannii; details: A. baumannii AYE (R); shown in µM
Summary of the method: as §1

[16] = tested on: C. tropicalis NCPF 8760; experiment: microbe, parasite or virus in culture; format: cell-based; details: C. tropicalis NCPF 8760; shown in µM
Summary of the method: as §1

[17] = tested on: C. glabrata NCPF 8018; experiment: microbe, parasite or virus in culture; format: cell-based; details: C. glabrata NCPF 8018; shown in µM
Summary of the method: as §1

[18] = tested on: C. albicans NCPF 3281; experiment: microbe, parasite or virus in culture; format: cell-based; details: C. albicans NCPF 3281; shown in µM
Summary of the method: as §1

[19] = tested on: C. krusei NCPF 3876; experiment: microbe, parasite or virus in culture; format: cell-based; details: C. krusei NCPF 3876; shown in µM
Summary of the method: as §1

[20] = tested on: C. parapsilosis NCPF 3209; experiment: microbe, parasite or virus in culture; format: cell-based; details: C. parapsilosis NCPF 3209; shown in µM
Summary of the method: as §1

Question: `CC[C@H](C)[C@H](NC(=O)[C@H](C)NC(=O)[C@H](CCCCN)NC(=O)[C@@H]1CCCN1C(=O)[C@@H](NC(=O)[C@H](CC(C)C)NC(=O)[C@H](CCCCN)NC(=O)[C@H](Cc1ccccc1)NC(=O)[C@H](CC(C)C)NC(=O)[C@@H](N)Cc1ccccc1)[C@@H](C)CC)C(=O)N[C@@H](CCCCN)C(=O)N[C@@H](CCCCN)C(=O)N[C@@H](CC(C)C)C(=O)N[C@H](C(=O)N[C@@H](CO)C(=O)N[C@@H](CCCCN)C(=O)N[C@@H](Cc1ccccc1)C(=O)N[C@@H](CCCCN)C(N)=O)[C@@H](C)CC` [AamAP1-Lysa] (H-FLFKLIPKAIKKLISKFK-NH2) was tested. Which “Modal MIC” value [1] did it give?
Answer: The value was 1.8 µM.

Question: What about the “Modal MIC” value [2] of the same compound?
Answer: Its value is 1.8 µM.

Question: What about the “Modal MIC” value [3] of the same compound?
Answer: The value was 1.8 µM.

Question: What about the “Modal MIC” value [4] of the same compound?
Answer: Its value is 0.9 µM.

Question: And the “HC10 (concentration causing 10% hemolysis)” value [5]?
Answer: Its value is 53 µg/mL.

Question: What about the “HC50 (concentration causing 50% hemolysis)” value [5] of the same compound?
Answer: The value was 256 µg/mL.

Question: And the “Modal MIC” value [6]?
Answer: Its value is 3.6 µM.

Question: What about the “Modal MIC” value [7] of the same compound?
Answer: The value was 3.6 µM.

Question: And the “Modal MIC50” value ([8]; 50% growth inhibition, RPMI 1640 + 2% glucose, 37 °C, 20 h, OD600)?
Answer: The value was over 128 µg/mL.

Question: What about the “Modal MIC90” value ([8]; 90% growth inhibition, RPMI 1640 + 2% glucose, 37 °C, 20 h, OD600) of the same compound?
Answer: Its value is over 128 µg/mL.

Question: What about the “Modal MIC50” value ([8]; shown in µM) of the same compound?
Answer: Its value is over 57.8 µM.

Question: What about the “Modal MIC90” value ([8]; shown in µM) of the same compound?
Answer: The value was over 57.8 µM.

Question: And the “Modal MIC” value [9]?
Answer: The value was 7.2 µM.

Question: What about the “Modal MIC” value [10] of the same compound?
Answer: The value was 7.2 µM.

Question: What about the “Modal MIC” value [11] of the same compound?
Answer: The value was 1.8 µM.

Question: What about the “Modal MIC” value [12] of the same compound?
Answer: Its value is 3.6 µM.

Question: And the “% HaCat cell death at initial screening (256μg/mL) ± SD” value [13]?
Answer: The value was 94.8 ± 8.2%.

Question: What about the “Modal MIC” value [14] of the same compound?
Answer: The value was 0.9 µM.

Question: What about the “Modal MIC” value [15] of the same compound?
Answer: The value was 1.8 µM.

Question: What about the “Modal MIC50” value [16] of the same compound?
Answer: Its value is 0.9 µM.

Question: And the “Modal MIC90” value [16]?
Answer: Its value is 0.9 µM.

Question: What about the “Modal MIC50” value [17] of the same compound?
Answer: Its value is 57.8 µM.

Question: And the “Modal MIC90” value [17]?
Answer: Its value is 57.8 µM.

Question: What about the “Modal MIC50” value [18] of the same compound?
Answer: Its value is 14.4 µM.

Question: What about the “Modal MIC90” value [18] of the same compound?
Answer: The value was 28.8 µM.

Question: And the “Modal MIC50” value [19]?
Answer: The value was 7.2 µM.

Question: And the “Modal MIC90” value [19]?
Answer: Its value is 7.2 µM.

Question: What about the “Modal MIC50” value [20] of the same compound?
Answer: Its value is 14.4 µM.

Question: And the “Modal MIC90” value [20]?
Answer: Its value is 14.4 µM.
